Results from patent US20230416248A1, “COMPOUNDS AND USES THEREOF” (Foghorn Therapeutics Inc., priority 2020, published 2023).
Read-outs that look alike come from different tables or passages of the source.

How the values were obtained:
BRM = molecular target: T1, BRM (Homo sapiens, UniProt P51531); test: ATPase catalytic activity of BRM, ADP-Glo in vitro biochemical assay; conditions: for IC50: 30 nM BRM, 400 μM ATP; for Ratio* (BRG1 IC50 (μM) divided by BRM IC50 (μM)): selectivity ratio BRG1 IC50 / BRM IC50
T1 construct: made in house; host or cells: High Five insect cells
T1 sequence (P51531 whole entry): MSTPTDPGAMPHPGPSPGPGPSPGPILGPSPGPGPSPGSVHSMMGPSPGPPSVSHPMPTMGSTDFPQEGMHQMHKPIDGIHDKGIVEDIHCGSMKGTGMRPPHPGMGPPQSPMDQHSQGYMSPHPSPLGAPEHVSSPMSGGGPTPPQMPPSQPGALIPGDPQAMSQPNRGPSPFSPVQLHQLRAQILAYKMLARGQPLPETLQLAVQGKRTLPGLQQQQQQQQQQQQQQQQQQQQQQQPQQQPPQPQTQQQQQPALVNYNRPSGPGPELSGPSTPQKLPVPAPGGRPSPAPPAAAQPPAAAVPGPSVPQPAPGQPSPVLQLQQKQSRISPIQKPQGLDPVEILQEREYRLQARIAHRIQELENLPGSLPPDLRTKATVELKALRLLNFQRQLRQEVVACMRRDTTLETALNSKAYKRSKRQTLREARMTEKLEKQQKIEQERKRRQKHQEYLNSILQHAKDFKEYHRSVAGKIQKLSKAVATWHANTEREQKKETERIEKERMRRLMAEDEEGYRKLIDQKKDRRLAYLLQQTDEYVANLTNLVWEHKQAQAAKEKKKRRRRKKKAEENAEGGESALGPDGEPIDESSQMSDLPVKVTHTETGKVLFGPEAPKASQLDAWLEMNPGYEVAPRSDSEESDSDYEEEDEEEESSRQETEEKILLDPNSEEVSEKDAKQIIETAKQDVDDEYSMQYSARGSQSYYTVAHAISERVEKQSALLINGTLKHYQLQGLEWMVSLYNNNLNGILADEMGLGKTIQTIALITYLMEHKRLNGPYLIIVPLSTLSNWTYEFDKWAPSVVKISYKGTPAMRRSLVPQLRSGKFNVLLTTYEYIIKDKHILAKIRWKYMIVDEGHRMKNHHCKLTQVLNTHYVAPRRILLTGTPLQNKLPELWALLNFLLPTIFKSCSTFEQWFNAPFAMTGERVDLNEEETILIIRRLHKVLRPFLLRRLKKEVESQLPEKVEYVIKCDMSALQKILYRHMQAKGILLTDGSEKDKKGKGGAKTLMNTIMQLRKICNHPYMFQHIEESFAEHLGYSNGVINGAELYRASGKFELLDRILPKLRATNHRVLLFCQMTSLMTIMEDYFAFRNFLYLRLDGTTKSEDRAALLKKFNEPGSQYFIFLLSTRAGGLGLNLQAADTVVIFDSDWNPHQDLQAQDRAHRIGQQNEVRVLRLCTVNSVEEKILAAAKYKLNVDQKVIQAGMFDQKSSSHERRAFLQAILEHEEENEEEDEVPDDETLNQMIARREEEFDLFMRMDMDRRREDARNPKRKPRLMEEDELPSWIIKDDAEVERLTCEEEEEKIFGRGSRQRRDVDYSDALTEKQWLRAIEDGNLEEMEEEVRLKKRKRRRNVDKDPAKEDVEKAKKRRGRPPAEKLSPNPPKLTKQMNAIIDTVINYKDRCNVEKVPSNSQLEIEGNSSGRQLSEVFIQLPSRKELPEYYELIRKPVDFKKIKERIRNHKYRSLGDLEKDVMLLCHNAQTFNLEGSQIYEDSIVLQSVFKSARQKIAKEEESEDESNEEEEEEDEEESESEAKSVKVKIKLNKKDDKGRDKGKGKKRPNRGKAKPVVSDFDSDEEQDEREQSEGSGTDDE
Protocol: (§1) The ATPase catalytic activity of BRM or BRG-1 was measured by an in vitro biochemical assay using ADP-Glo™ (Promega, V9102). The ADP-Glo™ kinase assay is performed in two steps once the reaction is complete. The first step is to deplete any unconsumed ATP in the reaction. The second step is to convert the reaction product ADP to ATP, which will be utilized by the luciferase to generate luminesce and be detected by a luminescence reader, such as Envision.
The assay reaction mixture ([…]) contains 30 nM of BRM or BRG-1, 20 nM salmon sperm DNA (from Invitrogen, UfraPure™ Salmon Sperm DNA Solution, cat #15632011), and 400 μM of ATP in the ATPase assay buffer, which comprises of 20 mM Tris, pH 8, 20 mM MgCl2, 50 mM NaCl, 0.1% Tween-20, and 1 mM fresh DTT (Piercer™ DTT (Dithiothreitol), cat #20290). The reaction is initiated by the addition of the 2.5 μL ATPase solution to 2.5 μL ATP/DNA solution on low volume white Proxiplate-384 plus plate (PerkinElmer, cat #6008280) and incubates at room temperature for 1 hour. Then, following addition of 5 μL of ADP-Glo™ Reagent provided in the kit, the reaction incubates at room temperature for 40 minutes. Then, 10 μL of Kinase Detection Reagent provided in the kit is added to convert ADP to ATP, and the reaction incubates at room temperature for 60 minutes. Finally, luminescence measurement is collected with a plate-reading luminometer, such as Envision.

BRG-1 = molecular target: T2, BRG-1 (Homo sapiens, UniProt P51532); test: ATPase catalytic activity of BRG-1, ADP-Glo in vitro biochemical assay; conditions: 30 nM BRG-1, 400 μM ATP, read-out: BRG1 IC50
T2 construct: made in house; host or cells: High Five insect cells
T2 sequence (P51532 whole entry): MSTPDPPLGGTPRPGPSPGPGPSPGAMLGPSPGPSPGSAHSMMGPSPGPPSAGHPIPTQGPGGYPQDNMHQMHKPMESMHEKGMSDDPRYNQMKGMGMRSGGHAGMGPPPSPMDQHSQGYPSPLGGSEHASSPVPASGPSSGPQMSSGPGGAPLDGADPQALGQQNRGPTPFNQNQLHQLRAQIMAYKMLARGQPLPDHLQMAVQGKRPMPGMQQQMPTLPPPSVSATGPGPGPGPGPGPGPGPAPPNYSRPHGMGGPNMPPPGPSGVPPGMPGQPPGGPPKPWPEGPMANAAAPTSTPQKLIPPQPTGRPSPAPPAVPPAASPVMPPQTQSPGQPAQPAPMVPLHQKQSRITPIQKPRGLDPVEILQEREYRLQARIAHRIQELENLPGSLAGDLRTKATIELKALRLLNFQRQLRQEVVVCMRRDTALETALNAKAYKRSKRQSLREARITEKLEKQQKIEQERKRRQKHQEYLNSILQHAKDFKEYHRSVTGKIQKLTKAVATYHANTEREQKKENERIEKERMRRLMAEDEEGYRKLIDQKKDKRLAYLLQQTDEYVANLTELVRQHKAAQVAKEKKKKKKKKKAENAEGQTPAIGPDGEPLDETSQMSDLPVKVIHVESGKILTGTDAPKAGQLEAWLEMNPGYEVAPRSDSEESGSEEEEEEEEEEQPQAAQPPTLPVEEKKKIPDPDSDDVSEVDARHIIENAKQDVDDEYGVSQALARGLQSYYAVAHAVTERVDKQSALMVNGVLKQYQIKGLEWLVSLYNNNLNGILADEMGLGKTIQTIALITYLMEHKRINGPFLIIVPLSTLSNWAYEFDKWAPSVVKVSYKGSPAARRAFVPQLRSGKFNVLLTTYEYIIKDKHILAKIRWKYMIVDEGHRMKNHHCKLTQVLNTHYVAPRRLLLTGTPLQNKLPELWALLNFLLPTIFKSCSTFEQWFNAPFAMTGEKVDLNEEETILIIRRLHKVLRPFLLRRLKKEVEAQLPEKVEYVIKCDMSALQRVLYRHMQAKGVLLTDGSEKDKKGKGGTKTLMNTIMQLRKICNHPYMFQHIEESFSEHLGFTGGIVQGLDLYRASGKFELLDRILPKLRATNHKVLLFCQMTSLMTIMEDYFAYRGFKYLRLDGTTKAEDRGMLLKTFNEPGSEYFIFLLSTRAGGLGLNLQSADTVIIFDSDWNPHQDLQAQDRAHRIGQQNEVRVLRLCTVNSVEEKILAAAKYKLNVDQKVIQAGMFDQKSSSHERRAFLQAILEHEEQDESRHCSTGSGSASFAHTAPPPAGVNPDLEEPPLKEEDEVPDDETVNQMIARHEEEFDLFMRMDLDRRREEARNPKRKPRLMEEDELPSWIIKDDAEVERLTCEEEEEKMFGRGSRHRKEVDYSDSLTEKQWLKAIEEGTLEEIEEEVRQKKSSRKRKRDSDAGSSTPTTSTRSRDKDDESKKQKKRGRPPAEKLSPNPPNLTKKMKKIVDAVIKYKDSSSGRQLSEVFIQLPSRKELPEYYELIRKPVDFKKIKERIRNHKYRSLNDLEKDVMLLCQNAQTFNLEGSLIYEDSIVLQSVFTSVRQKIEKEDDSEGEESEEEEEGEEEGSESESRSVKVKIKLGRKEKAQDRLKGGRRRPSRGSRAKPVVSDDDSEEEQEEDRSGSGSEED
Protocol: as §1
Then, following addition of 5 μL of ADP-Glo™ Reagent provided in the kit, the reaction incubates at room temperature for 40 minutes. Then, 10 μL of Kinase Detection Reagent provided in the kit is added to convert ADP to ATP, and the reaction incubates at room temperature for 60 minutes. Finally, luminescence measurement is collected with a plate-reading luminometer, such as Envision.

[1] = ATPase catalytic activity, ADP-Glo

SMILES	IC50 (BRM; [1]) [nM]	Ratio* (BRM; ratio of BRG1 IC50 to BRM IC50)	IC50 (BRG-1; [1]) [nM]	IC50 (BRM; ADP-Glo ATPase assay) [nM]	Ratio* (BRG1 IC50 (μM) divided by BRM IC50 (μM)) (BRM)	IC50 (BRG-1; ADP-Glo ATPase assay) [nM]	Ratio* (BRM; ratio BRG1 IC50 / BRM IC50)
CCc1cnc2c(c1)OCCN2c1ccc2cnc(CNC(=O)c3ccc4c(c3)S(=O)(=O)CCOC4)cc2n1 [Compound 665]	6.4	13.54	86.8	–	–	–	–
COCCN1c2cccc(-c3ccc4cnc(CNC(=O)c5ccc6c(c5)S(=O)(=O)CCOC6)cc4n3)c2OCC1C (centres unmarked) [Compound 326]	9.9	8.22	81	–	–	–	–
C[C@@H]1CC(c2cccc(-c3ccc4cnc(CNC(=O)c5ccc6c(c5)S(=O)(=O)CCOC6)cc4n3)n2)=C[C@H](C)O1 [Compound 46]	–	–	–	9.3	4.92	45.9	–
CO[C@H](C)CN(C)c1cccc(-c2ccc3cnc(CNC(=O)c4ccc5c(c4)S(=O)(=O)CCOC5)cc3n2)n1 [Compound 55]	–	–	–	25.3	9.45	239	–
O=C(NCc1cc2nc(-c3cccc(OCC4CC4)n3)ccc2cn1)c1ccc2c(c1)S(=O)(=O)CCOC2 [Compound 381]	19.4	12.43	241	–	–	–	–
C[C@@H]1CN(c2cccc(-c3ccc4cnc(CNC(=O)c5ccc6c(c5)S(=O)(=O)C5(CC6)CC5)cc4n3)n2)C[C@H](C)O1 [Compound 531]	–	28.30	–	–	–	–	–
CC1CN(c2cccc(-c3ccc4cnc(CNC(=O)c5cnc6c(c5)S(=O)(=O)CCC5CC65)cc4n3)n2)CC(C)O1 (centres unmarked) [Compound 577]	–	3.78	–	–	–	–	–
Cn1cccc(-c2ccc3cnc(CNC(=O)c4ccc5c(c4)S(=O)(=O)CCOC5)cc3n2)c1=O [Compound 826]	–	–	–	3200	–	–	1.56

Second part, the molecule after the results:

IC50 (BRM; [1]) [nM]	Ratio* (BRM; ratio of BRG1 IC50 to BRM IC50)	IC50 (BRG-1; [1]) [nM]	IC50 (BRM; ADP-Glo ATPase assay) [nM]	Ratio* (BRG1 IC50 (μM) divided by BRM IC50 (μM)) (BRM)	IC50 (BRG-1; ADP-Glo ATPase assay) [nM]	Ratio* (BRM; ratio BRG1 IC50 / BRM IC50)	SMILES
8.2	54.03	442	–	–	–	–	O=C(NCc1cc2nc(N3CCOc4ccc(C5CC5)nc43)ccc2cn1)c1ccc2c(c1)S(=O)(=O)CCOC2 [Compound 616]
36.7	14.05	515	–	–	–	–	O=C(NCc1cc2nc(N3CCCc4cc(F)c(F)cc43)ccc2cn1)c1ccc2c(c1)S(=O)(=O)CCOC2 [Compound 625]
–	–	–	1040	–	3810	3.68	CC1(C)CCN(c2ccc3cnc(CNC(=O)c4ccc5c(c4)S(=O)(=O)CCOC5)cc3n2)c2ncccc21 [Compound 752]
12.4	12.27	152	–	–	–	–	O=C(NCc1cc2nc(-c3cccc([C@]45CCOCC4C5)n3)ccc2cn1)c1ccc2c(c1)S(=O)(=O)CCOC2 (some centres unmarked) [Compound 377]
66.9	8.32	557	–	–	–	–	O=C(NCc1cc2nc(N3CCCc4ccc(C(F)(F)F)nc43)ccc2cn1)c1ccc2c(c1)S(=O)(=O)CCOC2 [Compound 570]
10.7	10.88	117	–	–	–	–	O=C(NCc1cc2nc(N3CCCc4ccc(F)nc43)ccc2cn1)c1ccc2c(c1)S(=O)(=O)CCOC2 [Compound 603]
2340	1.82	4260	–	–	–	–	O=C(NCc1cc2nc(N3CCCCc4cccnc43)ccc2cn1)c1ccc2c(c1)S(=O)(=O)CCOC2 [Compound 469]
76.3	10.42	795	–	–	–	–	COc1cc2c(nc1C1CC1)N(c1ccc3cnc(CNC(=O)c4ccc5c(c4)S(=O)(=O)CCOC5)cc3n1)CCC2 [Compound 683]
1190	4.19	–	–	–	–	–	C[C@@H]1CN(c2cccc(-c3ccc4cnc(CNC(=O)c5cc(C6CCC6)c6c(c5)S(=O)(=O)CCOC6)cc4n3)n2)C[C@H](C)O1 [Compound 631]
–	–	–	–	–	–	1.00	O=C(NCc1cc2cc(N3CCOc4cc(C5CC5)cnc43)ncc2cn1)c1ccc2c(c1)S(=O)(=O)CCOC2 [Compound 811]
715	6.99	–	–	–	–	–	O=C(NCc1cc2nc(-c3cccc4c3CN(C3CC3)CC4)ccc2cn1)c1ccc2c(c1)S(=O)(=O)CCOC2 [Compound 685]
637	7.84	–	–	–	–	–	CC1CN(c2cccc(-c3ccc4cnc(CNC(=O)c5ccc6c(c5)S(=O)(=O)C(C)COC6C)cc4n3)n2)CC(C)O1 (centres unmarked) [Compound 535]
